Measured values taken from patent US9938301B2, “Dihydropyrimido fused ring derivative as HBV inhibitor” (QILU PHARMACEUTICAL CO., LTD., priority 2014, dated 2018).

Each compound was assayed on HBV DNA in HepG2.2.15 cells (assay: HBV in vitro dot-blot hybridization test). Conditions: Hepatitis B virus, HepG2.2.15, dot-blot hybridization assay, read-out: Concentration for 50% inhibition of HBV (EC50)value.
Assay type: cell-based, Hepatitis B virus
Protocol: • 1. Purpose of the test: • The content of HBV DNA in HepG2.2.15 cells was detected by dot-blot hybridization test to evaluate an inhibitory action of the compound on HBV with an EC50 value as an indicator. • 2. Experimental materials: • 2.1 Cell lines: HepG2.2.15 Cells • HepG2.2.15 cell culture media (DMEM/F12, Invitrogen-11330057; 10% serum Invitrogen-10099141; 100 units/mL Penicillin and 10 μg/mL Streptomycin, Invitrogen-15140122; 1% non-essential amino acid, Invitrogen-11140076; 2 mM L-GLUTAMINE, Invitrogen-25030081; 300 µg/ml Geneticin, Invitrogen-10131027 • 2.2 Reagents: • Trypsin (I Invitrogen-25300062) • DPBS (Hyclone-SH30028.01B) • DMSO (Sigma-D2650-100ML) • 96-well cell-culture plate (Corning-3599) • CO2 incubator (HERA-CELL-240) • 20×SSC (Bio-serve Co. Ltd) • Tris-HCl (Aldirch-154563-1KG) • NaOH (Sinopharm 10019718) • NaCl (Sinopharm 10019308) • Hybridization solution (Major BioTech Co. Ltd, IMMUNE GOLD-HYB-500) • DIG Wash and Block Buffer set (Roche-11585762001) • Anti-digoxigenin-AP, Fab fragments from sheep (Roche-11093274910) • 2.3 Materials and Instruments: • Positively-Charged Nylon Membrane (GE-RPN2250B) • Transfer Membrane Instrument (Bio-Rad, 170-6545) • Hybridization Oven (HL-2000 Hybrilinker) • 3. Testing steps and Methods: • 3.1 HepG2.2.15 cells (4×10^4 cells/well) were planted into a 96-well plate, and at 37° C., 5% CO2 cultured overnight. • 3.2 On Day 2, the compounds were diluted in totally 6 concentrations with a dilution gradient of five times. The compounds at different concentrations were added into the culture wells in duplicate. The final concentration of DMSO in the culture media was 1%. 1 μM GLS4 was used as 100% inhibition control; 1% DMSO as 0% inhibition control. • 3.3 On Day 5, replacing with the fresh culture media containing the compound was performed. • 3.4 On Day 8 and Day 9, the culture media in the culture wells was removed, and the cells were harvested for dot-blot hybridization. • The lysate was added into a culture well, and at 37° C. incubating for half an hour to disintegrate cells; the supernatant was obtained by centrifugation and transferred into a new microplate; a denaturation solution was added, after sufficient mixing the denatured sample was transferred and imprinted onto a Nylon membrane, the nucleic acid was fixed onto the membrane by UV cross-linking. • Pre-hybridization: the membrane was incubated at 60° C. in a hybridization solution for 1 hour. • Hybridization: heating the denatured digoxin-labelled HBV DNA probe and incubating at 60° C. overnight. • Membrane Washing: performing high strigency washing twice, low strigency washing for 3 times. • Blocking: incubating the membrane at room temperature in a blocking solution for 30-60 minutes. • Hybridization: diluting the Antibody Solution with the blocking solution, in which the membrane was placed and incubated at room temperature for 30-60 minutes. • Developing: washing the membrane in a Detection Buffer for 5 minutes, followed by adding a developing solution, pressing and exposing. • The photos was saved in tiff format, and a gray value of the dot was quantified with quantity one software. • 3.5 Data Analysis: • 3.5.1 The inhibition percentage was calculated: % Inh.=[1−(sample dot gray value−1 μM GLS4 dot gray value 1)/(DMSO control dot gray value−1 μM GLS4 dot gray value 1)]×100. • 3.5.2 Calculating EC50: the concentration of the compound for 50% inhibition of HBV (EC50) was calculated by using GraphPad Prism Software. • 4.
For `CCOC(=O)C1=C2C[C@H](NS(=O)(=O)C3CC3)CN2C(c2nccs2)=N[C@H]1c1ccc(F)cc1Br` [Example 62], the EC50 was less than 0.1 µM. `CCOC(=O)C1=C2CC(NS(=O)(=O)C(F)(F)F)CN2C(c2nccs2)=N[C@H]1c1ccc(F)cc1Br` (some centres unmarked) [Example 63] was tested, and the EC50 was 0.1 to 0.5 µM. Work on `CCOC(=O)C1=C2C[C@H](NS(=O)(=O)C(F)(F)F)CN2C(c2nccs2)=N[C@H]1c1ccc(F)cc1Br` [Example 64] yielded an EC50 of 0.1 to 0.5 µM. In the case of `CCOC(=O)C1=C2C[C@@H](N3CCOC3=O)CN2C(c2nccs2)=N[C@H]1c1ccc(F)cc1Br` [Example 65], the EC50 is reported as 0.1 to 0.5 µM. In the case of `CCOC(=O)C1=C2C[C@H](N3CCOC3=O)CN2C(c2nccs2)=N[C@H]1c1ccc(F)cc1Br` [Example 66], the EC50 is reported as 0.1 to 0.5 µM. `CCOC(=O)C1=C2CN(C(=O)OCC)CCN2C(c2nccs2)=NC1c1ccc(F)cc1Br` (centres unmarked) [Example 82] was tested, and the EC50 was 0.1 to 0.5 µM. With `CCOC(=O)C1=C2CN(S(=O)(=O)NC)CCN2C(c2nccs2)=N[C@H]1c1ccc(F)cc1Br` [Example 84] the EC50 was 0.1 to 0.5 µM. For `CCOC(=O)C1=C2CN(C(=O)OC)CCN2C(c2nccs2)=N[C@H]1c1ccc(F)cc1Br` [Example 85], the EC50 was 0.1 to 0.5 µM. With `CCOC(=O)C1=C2CN(C(=O)NC)CCN2C(c2nccs2)=N[C@H]1c1ccc(F)cc1Br` [Example 88] the EC50 was 0.5 to 1 µM. `CCOC(=O)C1=C2CN(C(=O)CN)CCN2C(c2nccs2)=N[C@H]1c1ccc(F)cc1Br` [Example 89] gave an EC50 of 1 to 5 µM. Work on `CCOC(=O)C1=C2CN(C(=O)C3(C)COC3)CCN2C(c2nccs2)=N[C@H]1c1ccc(F)cc1Br` [Example 90] yielded an EC50 of 0.1 to 0.5 µM. `CCOC(=O)C1=C2CN(C(=O)C3CC3)CCN2C(c2nccs2)=N[C@H]1c1ccc(F)cc1Br` [Example 91] was tested, and the EC50 was 0.1 to 0.5 µM. With `CCOC(=O)C1=C2CN(C(=O)C(C)C)CCN2C(c2nccs2)=N[C@H]1c1ccc(F)cc1Br` [Example 92] the EC50 was less than 0.1 µM. `CCOC(=O)C1=C2CN(S(=O)(=O)C3CC3)CCN2C(c2nccs2)=N[C@H]1c1ccc(F)cc1Br` [Example 93] gave an EC50 of 0.1 to 0.5 µM. Compound `CCOC(=O)C1=C2CN(Cc3cc(C)on3)CCN2C(c2nccs2)=N[C@H]1c1ccc(F)cc1Br` [Example 94] has an EC50 of 1 to 5 µM. Compound `CCOC(=O)C1=C2CN(CC(=O)OC)CCN2C(c2nccs2)=N[C@H]1c1ccc(F)cc1Br` [Example 98] has an EC50 of 1 to 5 µM. For `CCOC(=O)C1=C2CN(CC(=O)O)CCN2C(c2nccs2)=N[C@H]1c1ccc(F)cc1Br` [Example 99], the EC50 was 1 to 5 µM. `CCOC(=O)C1=C2CN(Cc3cocn3)CCN2C(c2nccs2)=NC1c1ccc(F)cc1Br` (centres unmarked) [Example 100] showed an EC50 of 1 to 5 µM. `CCOC(=O)C1=C2CN(C#N)CCN2C(c2nccs2)=N[C@H]1c1ccc(F)cc1Br` [Example 101] was tested, and the EC50 was 0.5 to 1 µM. `CCOC(=O)C1=C2CN(C3COC3)CCN2C(c2nccs2)=N[C@H]1c1ccc(F)cc1Br` [Example 102] gave an EC50 of 0.5 to 1 µM. `CCNC(=S)N1CCN2C(c3nccs3)=N[C@@H](c3ccc(F)cc3Br)C(C(=O)OCC)=C2C1` [Example 103] gave an EC50 of 0.1 to 0.5 µM. With `CCOC(=O)C1=C2CN(CC(=O)OC)C(=O)CN2C(c2nccs2)=N[C@H]1c1ccc(F)cc1Br` [Example 106] the EC50 was 1 to 5 µM.

Same assay, conditions: Hepatitis B virus, HepG2.2.15, summary list of target compounds, Examples 1-165 (same as Table 2), read-out: BIOACTIVITY (inhibitory actions on HBV DNA, EC50)
Work on `CCOC(=O)C1=C2C[C@H](NS(=O)(=O)C3CC3)CN2C(c2nccs2)=N[C@H]1c1ccc(F)cc1Br` [Example 62] yielded an EC50 of less than 0.1 µM. In the case of `CCOC(=O)C1=C2CC(NS(=O)(=O)C(F)(F)F)CN2C(c2nccs2)=N[C@H]1c1ccc(F)cc1Br` (some centres unmarked) [Example 63], the EC50 is reported as 0.1 to 0.5 µM. Compound `CCOC(=O)C1=C2C[C@H](NS(=O)(=O)C(F)(F)F)CN2C(c2nccs2)=N[C@H]1c1ccc(F)cc1Br` [Example 64] has an EC50 of 0.1 to 0.5 µM. With `CCOC(=O)C1=C2C[C@@H](N3CCOC3=O)CN2C(c2nccs2)=N[C@H]1c1ccc(F)cc1Br` [Example 65] the EC50 was 0.1 to 0.5 µM. Compound `CCOC(=O)C1=C2C[C@H](N3CCOC3=O)CN2C(c2nccs2)=N[C@H]1c1ccc(F)cc1Br` [Example 66] has an EC50 of 0.1 to 0.5 µM. Work on `CCOC(=O)C1=C2CN(C(=O)OCC)CCN2C(c2nccs2)=NC1c1ccc(F)cc1Br` (centres unmarked) [Example 82] yielded an EC50 of 0.1 to 0.5 µM. `CCOC(=O)C1=C2CN(S(=O)(=O)NC)CCN2C(c2nccs2)=N[C@H]1c1ccc(F)cc1Br` [Example 84] gave an EC50 of 0.1 to 0.5 µM. In the case of `CCOC(=O)C1=C2CN(C(=O)OC)CCN2C(c2nccs2)=N[C@H]1c1ccc(F)cc1Br` [Example 85], the EC50 is reported as 0.1 to 0.5 µM. In the case of `CCOC(=O)C1=C2CN(C(=O)NC)CCN2C(c2nccs2)=N[C@H]1c1ccc(F)cc1Br` [Example 88], the EC50 is reported as 0.5 to 1 µM. With `CCOC(=O)C1=C2CN(C(=O)CN)CCN2C(c2nccs2)=N[C@H]1c1ccc(F)cc1Br` [Example 89] the EC50 was 1 to 5 µM. `CCOC(=O)C1=C2CN(C(=O)C3(C)COC3)CCN2C(c2nccs2)=N[C@H]1c1ccc(F)cc1Br` [Example 90] gave an EC50 of 0.1 to 0.5 µM. For `CCOC(=O)C1=C2CN(C(=O)C3CC3)CCN2C(c2nccs2)=N[C@H]1c1ccc(F)cc1Br` [Example 91], the EC50 was 0.1 to 0.5 µM. In the case of `CCOC(=O)C1=C2CN(C(=O)C(C)C)CCN2C(c2nccs2)=N[C@H]1c1ccc(F)cc1Br` [Example 92], the EC50 is reported as less than 0.1 µM. `CCOC(=O)C1=C2CN(S(=O)(=O)C3CC3)CCN2C(c2nccs2)=N[C@H]1c1ccc(F)cc1Br` [Example 93] gave an EC50 of 0.1 to 0.5 µM. Compound `CCOC(=O)C1=C2CN(Cc3cc(C)on3)CCN2C(c2nccs2)=N[C@H]1c1ccc(F)cc1Br` [Example 94] has an EC50 of 1 to 5 µM. With `CCOC(=O)C1=C2CN(CC(=O)OC)CCN2C(c2nccs2)=N[C@H]1c1ccc(F)cc1Br` [Example 98] the EC50 was 1 to 5 µM. Work on `CCOC(=O)C1=C2CN(CC(=O)O)CCN2C(c2nccs2)=N[C@H]1c1ccc(F)cc1Br` [Example 99] yielded an EC50 of 1 to 5 µM. In the case of `CCOC(=O)C1=C2CN(Cc3cocn3)CCN2C(c2nccs2)=NC1c1ccc(F)cc1Br` (centres unmarked) [Example 100], the EC50 is reported as 1 to 5 µM. `CCOC(=O)C1=C2CN(C#N)CCN2C(c2nccs2)=N[C@H]1c1ccc(F)cc1Br` [Example 101] gave an EC50 of 0.5 to 1 µM. `CCOC(=O)C1=C2CN(C3COC3)CCN2C(c2nccs2)=N[C@H]1c1ccc(F)cc1Br` [Example 102] was tested, and the EC50 was 0.5 to 1 µM. `CCNC(=S)N1CCN2C(c3nccs3)=N[C@@H](c3ccc(F)cc3Br)C(C(=O)OCC)=C2C1` [Example 103] was tested, and the EC50 was 0.1 to 0.5 µM. Work on `CCOC(=O)C1=C2CN(CC(=O)OC)C(=O)CN2C(c2nccs2)=N[C@H]1c1ccc(F)cc1Br` [Example 106] yielded an EC50 of 1 to 5 µM.
